Measurements published in patent publication US6602700B1, “Phenolic acid esterases, coding sequences and methods” (University of Georgia Research Foundation, Inc., priority 1998, dated 2003).

These compounds were tested against T1, FAE (Acetivibrio thermocellus, UniProt P10478) (assay: Inhibition of XynZ FAE by ferulic acid and sugars).
T1 construct: made in house; host or cells: E. coli BL21(DE3)
Assay type: biochemical, Clostridium thermocellum

T1 sequence (P10478 20-286): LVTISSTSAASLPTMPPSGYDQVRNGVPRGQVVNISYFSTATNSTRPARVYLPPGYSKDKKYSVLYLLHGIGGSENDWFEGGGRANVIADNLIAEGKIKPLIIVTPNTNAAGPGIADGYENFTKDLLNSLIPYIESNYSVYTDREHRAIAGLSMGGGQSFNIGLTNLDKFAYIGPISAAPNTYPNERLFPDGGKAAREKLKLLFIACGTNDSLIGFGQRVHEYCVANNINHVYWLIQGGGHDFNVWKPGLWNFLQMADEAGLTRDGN

Row | Structure (SMILES) | Inhibition of FAE
1 | O=C[C@@H](O)[C@H](O)[C@H](O)CO [arabinose] | not
2 | COc1cc(/C=C/C(=O)O)ccc1O [ferulic acid] | inhibited
3 | O=C[C@H](O)[C@@H](O)[C@H](O)CO [xylose] | not
